Data as given in publication PMC10949195, “Exponential Combination of a and e/g Intracellular Peptide Libraries Identifies a Selective ATF3 Inhibitor” (ACS Chemical Biology, 2024).

Legend:
[1] = molecular target: T1, ATF3 (Homo sapiens, UniProt P18847); test: Size-exclusion chromatography of ATF3-ATF3W_aeg mixture; assay type: binding; conditions: Superdex Peptide 10/300 GL, RT; 20 μM total peptide
T1 construct: We focus on the selective targeting of the ATF3 leucine zipper dimerization domain using intracellular peptide library screening; made in house; host or cells: chemical solid-phase peptide synthesis (no expression host)
T1 sequence (P18847 110-143): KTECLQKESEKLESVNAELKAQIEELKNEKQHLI
Protocol: During SEC experiments, monomeric ATF3 (Figure 8, blue line) and ATF3W_aeg (Figure 8, green line) eluted at approximately 20 min. These contrast with the dimeric profile observed for ATF3-ATF3W_aeg (Figure 8, black line), which occurred at approximately 19 min. For all samples, elution profiles were consistent with either a validated monomer or dimer elution pattern.[15]
Figure 8 SEC profiles indicate that ATF3W_aeg binds ATF3. Shown are size exclusion chromatography profiles for interacting peptides. The peak at approx 19 min for the ATF3-ATF3W_aeg mixture (black trace) represents a dimeric sample while ATF3 (blue trace) and ATF3W_aeg (green trace) generate a peak at approx 20 min, indicating the presence of a monomer. These experiments, undertaken at a total peptide concentration of 20 μM, provide additional evidence for selectivity of the ATF3-ATF3W_aeg interaction. Arrows show controls from previous peptides with elution times for a 32 mer Fos monomeric peptide (20 min) and a 37 mer cJun–FosW heterodimer (18.5 min).[15]
Size-exclusion experiments were performed at RT using a Superdex Peptide 10/300 GL column (GE Healthcare Life Sciences) as described previously.[23]

[2] = Serum stability; assay type: in vitro ADME; conditions: human serum (Merck), 75 uL of 600 uM stock in 1425 uL serum, 37 °C, 3-day time course; LC-MS; averages of three experimental repeats
Protocol: TableS1: Shown are peptide permeability assay on ATF3W-aeg. […]
peptide holding on the membrane.
Peptide permeability assay: To evaluate the peptide permeability, the BD™ pre-coated PAMPA plate system was employed. The 300uL of 200uM peptide in PBS buffer were added in the well of the receiver plate, and slowly placed the filter plate with the 200uL PBS buffer per well on the receiver plate. The peptide concentrations in both plates were determined by UV spectroscopy after the assembly plate system were incubated at room temperature for 5 hours, and the peptide permeability and mass retention were calculated by using the PAMPA plate system formula which recommended in the manufacture manual.
Permeability (in unit of cm/s):
Mass retention: 1 - [CD(t)*VD + CA(t)*VA ]/( C0 * VD)
C0 = initial compound concentration in donor well (mM)
CD(t) = compound concentration in donor well at time t (mM)
CA(t) = compound concentration in acceptor well at time t (mM)
VD = donor well volume = 0.3 mL
VA = acceptor well volume = 0.2 mL […]
Serum stability: The quantity of peptide detected by LC-MS is plotted relative to the starting point […]
Fig S5: Shown are serum stability of ATF3W-aeg. The quantity of peptide detected by LC-MS is plotted […]
The supernatant was analysed by LC-MS, and the peptide was quantified as the sum of the peaks with the two largest intensities1.

Ac-ELAALEQKAYALKQENAALEKEVAALEQKIAALK-NH2 (N-terminus and C-terminus assumed) [ATF3W_aeg]
SEC elution time of ATF3-ATF3W_aeg mixture [1]: approximately 19 min
oligomeric state of ATF3-ATF3W_aeg interaction by SEC [1]: exclusively dimeric
serum stability, peptide quantity relative to starting point [2]: completely degraded
